These are literature values, as cited in patent US9061052B2, “Aqueous extract of tobacco leaves, its uses in the treatment of dependence” (NFL BIOSCIENCE, priority 2006, dated 2015).

In the data set the test system is tobacco dependence. The settings on record: in vivo.

On to `CC(NC(C)(C)C)C(=O)c1cccc(Cl)c1` (stereo not shown) [Zyban, bupropion], for which the Adverse effects entry is “dry mouth sensation, insomnia and dizziness”.
